According to the supplement of paper PMC10307832:

Columns and labels:
Experiment in all cases: relative viability (nuclei count vs DMSO), 5 days (fraction); higher = more cells survive
BEN = system: BEN
Summary of the method: (§1)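 The day after seeding in 1536-well plates, lung cancer cell lines were treated by pin tool with a single drug, or with a fixed anchor-drug dose together with five library-drug doses (not always all listed) in √10 steps. After 5 days, a combined fix-and-stain solution (final 0.05% Triton X-100, 1% formaldehyde, 1 ug/ml Hoechst) was added. Nuclei counted on 4× images gave relative viability as treated counts over vehicle counts, reported as the median of duplicate plates.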

CAL-12T = system: CAL-12T
Summary of the method: as §1

COR-L23 = system: COR-L23
Summary of the method: as §1

HCC-366 = system: HCC-366
Summary of the method: as §1

LOU-NH91 = system: LOU-NH91
Summary of the method: as §1

LU99A = system: LU99A
Summary of the method: as §1

NCI-H1355 = system: NCI-H1355
Summary of the method: as §1

NCI-H1437 = system: NCI-H1437
Summary of the method: as §1

NCI-H1563 = system: NCI-H1563
Summary of the method: as §1

NCI-H1650 = system: NCI-H1650
Summary of the method: as §1

NCI-H1651 = system: NCI-H1651
Summary of the method: as §1

NCI-H1734 = system: NCI-H1734
Summary of the method: as §1

NCI-H1793 = system: NCI-H1793
Summary of the method: as §1

NCI-H1975 = system: NCI-H1975
Summary of the method: as §1

NCI-H2023 = system: NCI-H2023
Summary of the method: as §1

NCI-H2085 = system: NCI-H2085
Summary of the method: as §1

NCI-H2342 = system: NCI-H2342
Summary of the method: as §1

NCI-H358 = system: NCI-H358
Summary of the method: as §1

NCI-H441 = system: NCI-H441
Summary of the method: as §1

NCI-H460 = system: NCI-H460
Summary of the method: as §1

NCI-H838 = system: NCI-H838
Summary of the method: as §1

SK-LU-1 = system: SK-LU-1
Summary of the method: as §1

## O=c1cc(N2CCOCC2)oc2c(-c3cccc4c3sc3ccccc34)cccc12 + Cc1nc(Nc2ncc(C(=O)Nc3c(C)cccc3Cl)s2)cc(N2CCN(CCO)CC2)n1 [Dasatinib] (partner 0.075 µM)
BEN; first compound 0.01 µM
  relative viability: 0.317
BEN; first compound 0.03162 µM
  relative viability: 0.362
BEN; first compound 0.1 µM
  relative viability: 0.3
BEN; first compound 0.3162 µM
  relative viability: 0.354
BEN; first compound 1 µM
  relative viability: 0.266
CAL-12T; first compound 0.01 µM
  relative viability: 0.322
CAL-12T; first compound 0.03162 µM
  relative viability: 0.531
CAL-12T; first compound 0.1 µM
  relative viability: 0.49
CAL-12T; first compound 0.3162 µM
  relative viability: 0.317
CAL-12T; first compound 1 µM
  relative viability: 0.295
COR-L23; first compound 0.01 µM
  relative viability: 0.534
COR-L23; first compound 0.03162 µM
  relative viability: 0.496
COR-L23; first compound 0.1 µM
  relative viability: 0.566
COR-L23; first compound 0.3162 µM
  relative viability: 0.446
COR-L23; first compound 1 µM
  relative viability: 0.512
HCC-366; first compound 0.01 µM
  relative viability: 0.672
HCC-366; first compound 0.03162 µM
  relative viability: 0.69
HCC-366; first compound 0.1 µM
  relative viability: 0.725
HCC-366; first compound 0.3162 µM
  relative viability: 0.601
HCC-366; first compound 1 µM
  relative viability: 0.618
LOU-NH91; first compound 0.01 µM
  relative viability: 0.546
LOU-NH91; first compound 0.03162 µM
  relative viability: 0.55
LOU-NH91; first compound 0.1 µM
  relative viability: 0.537
LOU-NH91; first compound 0.3162 µM
  relative viability: 0.584
LOU-NH91; first compound 1 µM
  relative viability: 0.563
LU99A; first compound 0.01 µM
  relative viability: 0.552
LU99A; first compound 0.03162 µM
  relative viability: 0.596
LU99A; first compound 0.1 µM
  relative viability: 0.741
LU99A; first compound 0.3162 µM
  relative viability: 0.535
LU99A; first compound 1 µM
  relative viability: 0.421
NCI-H1355; first compound 0.01 µM
  relative viability: 0.789
NCI-H1355; first compound 0.03162 µM
  relative viability: 0.692
NCI-H1355; first compound 0.1 µM
  relative viability: 0.695
NCI-H1355; first compound 0.3162 µM
  relative viability: 0.731
NCI-H1355; first compound 1 µM
  relative viability: 0.682
NCI-H1437; first compound 0.01 µM
  relative viability: 0.337
NCI-H1437; first compound 0.03162 µM
  relative viability: 0.329
NCI-H1437; first compound 0.1 µM
  relative viability: 0.492
NCI-H1437; first compound 0.3162 µM
  relative viability: 0.509
NCI-H1437; first compound 1 µM
  relative viability: 0.344
NCI-H1563; first compound 0.01 µM
  relative viability: 0.445
NCI-H1563; first compound 0.03162 µM
  relative viability: 0.451
NCI-H1563; first compound 0.1 µM
  relative viability: 0.445
NCI-H1563; first compound 0.3162 µM
  relative viability: 0.51
NCI-H1563; first compound 1 µM
  relative viability: 0.412
NCI-H1650; first compound 0.01 µM
  relative viability: 0.34
NCI-H1650; first compound 0.03162 µM
  relative viability: 0.33
NCI-H1650; first compound 0.1 µM
  relative viability: 0.315
NCI-H1650; first compound 0.3162 µM
  relative viability: 0.287
NCI-H1650; first compound 1 µM
  relative viability: 0.276
NCI-H1651; first compound 0.01 µM
  relative viability: 0.421
NCI-H1651; first compound 0.03162 µM
  relative viability: 0.414
NCI-H1651; first compound 0.1 µM
  relative viability: 0.395
NCI-H1651; first compound 0.3162 µM
  relative viability: 0.338
NCI-H1651; first compound 1 µM
  relative viability: 0.519
NCI-H1734; first compound 0.01 µM
  relative viability: 0.498
NCI-H1734; first compound 0.03162 µM
  relative viability: 0.517
NCI-H1734; first compound 0.1 µM
  relative viability: 0.49
NCI-H1734; first compound 0.3162 µM
  relative viability: 0.439
NCI-H1734; first compound 1 µM
  relative viability: 0.415
NCI-H1793; first compound 0.01 µM
  relative viability: 0.372
NCI-H1793; first compound 0.1 µM
  relative viability: 0.394
NCI-H1793; first compound 0.3162 µM
  relative viability: 0.314
NCI-H1793; first compound 1 µM
  relative viability: 0.405
NCI-H1975; first compound 0.01 µM
  relative viability: 0.333
NCI-H1975; first compound 0.03162 µM
  relative viability: 0.349
NCI-H1975; first compound 0.1 µM
  relative viability: 0.333
NCI-H1975; first compound 0.3162 µM
  relative viability: 0.378
NCI-H1975; first compound 1 µM
  relative viability: 0.404
NCI-H2023; first compound 0.01 µM
  relative viability: 0.523
NCI-H2023; first compound 0.03162 µM
  relative viability: 0.677
NCI-H2023; first compound 0.1 µM
  relative viability: 0.612
NCI-H2023; first compound 0.3162 µM
  relative viability: 0.551
NCI-H2023; first compound 1 µM
  relative viability: 0.513
NCI-H2085; first compound 0.01 µM
  relative viability: 0.267
NCI-H2085; first compound 0.03162 µM
  relative viability: 0.241
NCI-H2085; first compound 0.1 µM
  relative viability: 0.253
NCI-H2085; first compound 0.3162 µM
  relative viability: 0.225
NCI-H2085; first compound 1 µM
  relative viability: 0.219
NCI-H2342; first compound 0.01 µM
  relative viability: 0.352
NCI-H2342; first compound 0.03162 µM
  relative viability: 0.307
NCI-H2342; first compound 0.1 µM
  relative viability: 0.332
NCI-H2342; first compound 0.3162 µM
  relative viability: 0.322
NCI-H2342; first compound 1 µM
  relative viability: 0.325
NCI-H358; first compound 0.01 µM
  relative viability: 0.179
NCI-H358; first compound 0.03162 µM
  relative viability: 0.145
NCI-H358; first compound 0.1 µM
  relative viability: 0.201
NCI-H358; first compound 0.3162 µM
  relative viability: 0.182
NCI-H358; first compound 1 µM
  relative viability: 0.167
NCI-H441; first compound 0.01 µM
  relative viability: 0.623
NCI-H441; first compound 0.03162 µM
  relative viability: 0.676
NCI-H441; first compound 0.1 µM
  relative viability: 0.594
NCI-H441; first compound 0.3162 µM
  relative viability: 0.492
NCI-H441; first compound 1 µM
  relative viability: 0.574
NCI-H460; first compound 0.01 µM
  relative viability: 0.558
NCI-H460; first compound 0.03162 µM
  relative viability: 0.54
NCI-H460; first compound 0.1 µM
  relative viability: 0.516
NCI-H460; first compound 0.3162 µM
  relative viability: 0.512
NCI-H460; first compound 1 µM
  relative viability: 0.452
NCI-H838; first compound 0.01 µM
  relative viability: 0.278
NCI-H838; first compound 0.03162 µM
  relative viability: 0.301
NCI-H838; first compound 0.1 µM
  relative viability: 0.319
NCI-H838; first compound 0.3162 µM
  relative viability: 0.294
NCI-H838; first compound 1 µM
  relative viability: 0.271
SK-LU-1; first compound 0.01 µM
  relative viability: 0.173
SK-LU-1; first compound 0.03162 µM
  relative viability: 0.175
SK-LU-1; first compound 0.1 µM
  relative viability: 0.166
SK-LU-1; first compound 0.3162 µM
  relative viability: 0.195
SK-LU-1; first compound 1 µM
  relative viability: 0.181
